These molecules were tested against USP7 (Homo sapiens, UniProt Q93009) (assay: USP7 inhibitory potency (Table 1)).
Type: biochemical

Chain of USP7 (Q93009 whole entry): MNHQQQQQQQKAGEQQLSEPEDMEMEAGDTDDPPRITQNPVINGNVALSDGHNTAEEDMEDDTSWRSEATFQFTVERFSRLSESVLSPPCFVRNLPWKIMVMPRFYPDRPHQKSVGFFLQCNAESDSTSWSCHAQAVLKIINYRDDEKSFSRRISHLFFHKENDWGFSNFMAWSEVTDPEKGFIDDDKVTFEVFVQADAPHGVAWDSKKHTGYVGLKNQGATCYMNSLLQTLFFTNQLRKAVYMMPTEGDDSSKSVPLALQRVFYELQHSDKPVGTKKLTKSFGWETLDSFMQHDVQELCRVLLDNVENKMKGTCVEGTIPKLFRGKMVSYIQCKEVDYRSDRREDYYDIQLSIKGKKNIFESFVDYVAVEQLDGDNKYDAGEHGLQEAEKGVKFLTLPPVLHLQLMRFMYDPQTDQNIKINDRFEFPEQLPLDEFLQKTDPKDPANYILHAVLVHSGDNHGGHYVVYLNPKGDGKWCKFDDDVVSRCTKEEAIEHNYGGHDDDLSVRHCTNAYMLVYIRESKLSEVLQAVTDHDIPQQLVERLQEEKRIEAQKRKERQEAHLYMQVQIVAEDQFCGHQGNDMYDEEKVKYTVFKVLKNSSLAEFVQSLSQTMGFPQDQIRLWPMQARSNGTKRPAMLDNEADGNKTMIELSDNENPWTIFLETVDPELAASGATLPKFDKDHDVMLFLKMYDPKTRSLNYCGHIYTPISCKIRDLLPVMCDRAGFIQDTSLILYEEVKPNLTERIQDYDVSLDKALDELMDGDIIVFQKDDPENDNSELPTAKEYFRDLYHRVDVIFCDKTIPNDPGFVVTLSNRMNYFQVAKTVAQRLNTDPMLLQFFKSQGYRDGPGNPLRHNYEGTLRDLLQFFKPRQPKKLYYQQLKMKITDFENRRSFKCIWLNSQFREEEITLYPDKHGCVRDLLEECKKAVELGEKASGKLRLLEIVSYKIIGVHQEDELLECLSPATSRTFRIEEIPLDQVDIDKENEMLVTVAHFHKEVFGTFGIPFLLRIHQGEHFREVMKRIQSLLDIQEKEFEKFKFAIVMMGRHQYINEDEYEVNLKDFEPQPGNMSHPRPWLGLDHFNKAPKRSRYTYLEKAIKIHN

| SMILES | IC50 [µM] |
| --- | --- |
| C[C@@H](c1cc2nccc(-c3cc(Cl)cc4c3O[C@@H](C(=O)N3CCNCC3)C4)c2s1)N1C(=O)CCC1=O [1-((S)-1-(7-((R)-5-chloro-2-(piperazine-1-carbonyl)-2,3-dihydrobenzofuran-7-yl)thieno[3,2-b]pyridin-2-yl)ethyl)pyrrolidine-2,5-dione] | < 1 |
| CC(C)(O)C1Cc2nccc(-c3cc(Cl)cc4c3O[C@@H](c3onc5c3CNCC5)C4)c2C1 (stereo partly drawn) [2-(4-((R)-5-chloro-2-(4,5,6,7-tetrahydroisoxazolo[4,3-c]pyridin-3-yl)-2,3-dihydrobenzofuran-7-yl)-6,7-dihydro-5H-cyclopenta[b]pyridin-6-yl)propan-2-ol] | 1 to 10 |
| CCC(O)(C(=O)N(C)C)c1cc2nccc(-c3cc(Cl)cc4c3O[C@@H](C(=O)N3CCNCC3)C4)c2s1 (stereo partly drawn) [2-(7-((R)-5-chloro-2-(piperazine-1-carbonyl)-2,3-dihydrobenzofuran-7-yl)thieno[3,2-b]pyridin-2-yl)-2-hydroxy-N,N-dimethylbutanamide] | < 1 |
| CCC(O)(CC)C1Cc2nccc(-c3cc(Cl)cc4c3O[C@@H](c3onc5c3CNCC5)C4)c2C1 (stereo partly drawn) [3-(4-((R)-5-chloro-2-(4,5,6,7-tetrahydroisoxazolo[4,3-c]pyridin-3-yl)-2,3-dihydrobenzofuran-7-yl)-6,7-dihydro-5H-cyclopenta[b]pyridin-6-yl)pentan-3-ol] | 1 to 10 |
| Clc1cc2c(c(-c3ccnc4[nH]ccc34)c1)OC(c1n[nH]c3c1CNCC3)C2 (stereo not drawn) [3-(5-chloro-7-(1H-pyrrolo[2,3-b]pyridin-4-yl)-2,3-dihydrobenzofuran-2-yl)-4,5,6,7-tetrahydro-1H-pyrazolo[4,3-c]pyridine] | 1 to 10 |
| Clc1cc2c(c(-c3ccnc4[nH]ccc34)c1)OC(c1onc3c1CCNC3)C2 (stereo not drawn) [3-(5-chloro-7-(1H-pyrrolo[2,3-b]pyridin-4-yl)-2,3-dihydrobenzofuran-2-yl)-4,5,6,7-tetrahydroisoxazolo[3,4-c]pyridine] | 1 to 10 |
| Clc1cc2c(c(-c3ccnc4[nH]ccc34)c1)OC(c1onc3c1CNCC3)C2 (stereo not drawn) [3-(5-chloro-7-(1H-pyrrolo[2,3-b]pyridin-4-yl)-2,3-dihydrobenzofuran-2-yl)-4,5,6,7-tetrahydroisoxazolo[4,3-c]pyridine] | < 1 |
| Clc1cc2c(c(-c3ccnc4ccnn34)c1)OC(c1onc3c1CNCC3)C2 (stereo not drawn) [3-(5-chloro-7-(pyrazolo[1,5-a]pyrimidin-7-yl)-2,3-dihydrobenzofuran-2-yl)-4,5,6,7-tetrahydroisoxazolo[4,3-c]pyridine] | 1 to 10 |
| Clc1cc2c(c(-c3ccncc3)c1)OC(c1onc3c1CNCC3)C2 (stereo not drawn) [3-(5-chloro-7-(pyridin-4-yl)-2,3-dihydrobenzofuran-2-yl)-4,5,6,7-tetrahydroisoxazolo[4,3-c]pyridine] | 1 to 10 |
| N#CCC(O)c1cc2nccc(-c3cc(Cl)cc4c3O[C@@H](C(=O)N3CCNCC3)C4)c2s1 (stereo partly drawn) [3-(7-((R)-5-chloro-2-(piperazine-1-carbonyl)-2,3-dihydrobenzofuran-7-yl)thieno[3,2-b]pyridin-2-yl)-3-hydroxypropanenitrile] | < 1 |
| CCC(OC)c1cc2nccc(-c3cc(Cl)cc4c3O[C@@H](c3onc5c3CNCC5)C4)c2s1 (stereo partly drawn) [3-((2R)-5-chloro-7-(2-(1-methoxypropyl)thieno[3,2-b]pyridin-7-yl)-2,3-dihydrobenzofuran-2-yl)-4,5,6,7-tetrahydroisoxazolo[4,3-c]pyridine] | < 1 |
| O=C(C1Cc2cc(Cl)cc(-c3ccnc(Cn4cnc5ccccc5c4=O)c3)c2O1)N1CCNCC1 (stereo not drawn) [3-((4-(5-chloro-2-(piperazine-1-carbonyl)-2,3-dihydrobenzofuran-7-yl)pyridin-2-yl)methyl)quinazolin-4(3H)-one] | 10 to 30 |
| OCC(O)(CCl)c1cc2nccc(-c3cc(Cl)cc4c3O[C@@H](c3onc5c3CNCC5)C4)c2s1 (stereo partly drawn) [3-chloro-2-(7-((R)-5-chloro-2-(4,5,6,7-tetrahydroisoxazolo[4,3-c]pyridin-3-yl)-2,3-dihydrobenzofuran-7-yl)thieno[3,2-b]pyridin-2-yl)propane-1,2-diol] | < 1 |
| CNC(=O)c1cc2c(-c3cc(Cl)cc4c3OC(C(=O)N3CCNCC3)C4)ccnc2[nH]1 (stereo not drawn) [4-(5-Chloro-2-(piperazine-1-carbonyl)-2,3-dihydrobenzofuran-7-yl)-N-methyl-1H-pyrrolo[2,3-b]pyridine-2-carboxamide] | 10 to 30 |
| NC(=O)c1c[nH]c2nccc(-c3cc(Cl)cc4c3OC(C(=O)N3CCNCC3)C4)c12 (stereo not drawn) [4-(5-chloro-2-(piperazine-1-carbonyl)-2,3-dihydrobenzofuran-7-yl)-1H-pyrrolo[2,3-b]pyridine-3-carboxamide] | 1 to 10 |
| O=C(Nc1ccc(F)cc1)c1cc2c(-c3cc(Cl)cc4c3OC(C(=O)N3CCNCC3)C4)ccnc2[nH]1 (stereo not drawn) [4-(5-chloro-2-(piperazine-1-carbonyl)-2,3-dihydrobenzofuran-7-yl)-N-(4-fluorophenyl)-1H-pyrrolo[2,3-b]pyridine-2-carboxamide] | 1 to 10 |
| CNC(=O)c1ccc2c(-c3cc(Cl)cc4c3OC(C(=O)N3CCNCC3)C4)ccnc2c1 (stereo not drawn) [4-(5-chloro-2-(piperazine-1-carbonyl)-2,3-dihydrobenzofuran-7-yl)-N-methylquinoline-7-carboxamide] | 1 to 10 |

| SMILES | IC50 [µM] |
| --- | --- |
| N#Cc1ccc2nccc(-c3cc(Cl)cc4c3OC(C(=O)N3CCNCC3)C4)c2c1 (stereo not drawn) [4-(5-chloro-2-(piperazine-1-carbonyl)-2,3-dihydrobenzofuran-7-yl)quinoline-6-carbonitrile] | 10 to 30 |
| N#Cc1ccc2c(-c3cc(Cl)cc4c3OC(C(=O)N3CCNCC3)C4)ccnc2c1 (stereo not drawn) [4-(5-chloro-2-(piperazine-1-carbonyl)-2,3-dihydrobenzofuran-7-yl)quinoline-7-carbonitrile] | < 1 |
| NC(=O)C1Cc2nccc(-c3cc(Cl)cc4c3O[C@@H](c3onc5c3CNCC5)C4)c2C1 (stereo partly drawn) [4-((R)-5-chloro-2-(4,5,6,7-tetrahydroisoxazolo[4,3-c]pyridin-3-yl)-2,3-dihydrobenzofuran-7-yl)-6,7-dihydro-5H-cyclopenta[b]pyridine-6-carboxamide] | 1 to 10 |
| CN(C)C(=O)C1Cc2nccc(-c3cc(Cl)cc4c3O[C@@H](c3onc5c3CNCC5)C4)c2C1 (stereo partly drawn) [4-((R)-5-chloro-2-(4,5,6,7-tetrahydroisoxazolo[4,3-c]pyridin-3-yl)-2,3-dihydrobenzofuran-7-yl)-N,N-dimethyl-6,7-dihydro-5H-cyclopenta[b]pyridine-6-carboxamide] | 1 to 10 |
| CNC(=O)C1Cc2nccc(-c3cc(Cl)cc4c3O[C@@H](c3onc5c3CNCC5)C4)c2C1 (stereo partly drawn) [4-((R)-5-chloro-2-(4,5,6,7-tetrahydroisoxazolo[4,3-c]pyridin-3-yl)-2,3-dihydrobenzofuran-7-yl)-N-methyl-6,7-dihydro-5H-cyclopenta[b]pyridine-6-carboxamide] | 1 to 10 |
| O=C1CCC(c2cc3nccc(-c4cc(Cl)cc5c4O[C@@H](c4onc6c4CNCC6)C5)c3s2)N1 (stereo partly drawn) [5-(7-((R)-5-chloro-2-(4,5,6,7-tetrahydroisoxazolo[4,3-c]pyridin-3-yl)-2,3-dihydrobenzofuran-7-yl)thieno[3,2-b]pyridin-2-yl)pyrrolidin-2-one] | 1 to 10 |
| O=C1NC(=O)C(c2cc3nccc(-c4cc(Cl)cc5c4O[C@@H](C(=O)N4CCNCC4)C5)c3s2)N1 (stereo partly drawn) [5-(7-((R)-5-chloro-2-(piperazine-1-carbonyl)-2,3-dihydrobenzofuran-7-yl)thieno[3,2-b]pyridin-2-yl)imidazolidine-2,4-dione] | < 1 |
| O=C(N[C@@H]1CCCNC1)C1Cc2cc(Cl)cc(-c3ccnc4[nH]ccc34)c2O1 (stereo partly drawn) [5-Chloro-N-((R)-piperidin-3-yl)-7-(1H-pyrrolo[2,3-b]pyridin-4-yl)-2,3-dihydrobenzofuran-2-carboxamide] | 1 to 10 |
| C[C@@H]1C[C@H](NC(=O)C2Cc3cc(Cl)cc(-c4ccnc5[nH]ccc45)c3O2)CCN1 (stereo partly drawn) [5-chloro-N-((2R,4R)-2-methylpiperidin-4-yl)-7-(1H-pyrrolo[2,3-b]pyridin-4-yl)-2,3-dihydrobenzofuran-2-carboxamide] | 1 to 10 |
| C[C@H]1C[C@H](NC(=O)C2Cc3cc(Cl)cc(-c4ccnc5[nH]ccc45)c3O2)CCN1 (stereo partly drawn) [5-chloro-N-((2S,4R)-2-methylpiperidin-4-yl)-7-(1H-pyrrolo[2,3-b]pyridin-4-yl)-2,3-dihydrobenzofuran-2-carboxamide] | 1 to 10 |
| NC(=O)c1cc2nccc(-c3cc(Cl)cc4c3OC(C(=O)N3CCNCC3)C4)c2s1 (stereo not drawn) [7-(5-chloro-2-(piperazine-1-carbonyl)-2,3-dihydrobenzofuran-7-yl)thieno[3,2-b]pyridine-2-carboxamide] | 1 to 10 |
| O=C1c2ccccc2C2(c3cc4ncnc(-c5cc(Cl)cc6c5O[C@@H](c5onc7c5CNCC7)C6)c4s3)OCCN12 (stereo partly drawn) [9b-(4-((R)-5-chloro-2-(4,5,6,7-tetrahydroisoxazolo[4,3-c]pyridin-3-yl)-2,3-dihydrobenzofuran-7-yl)thieno[3,2-d]pyrimidin-6-yl)-2,3-dihydrooxazolo[2,3-a]isoindol-5(9bH)-one] | 10 to 30 |
| C=CCC1(C(=O)N2CCNCC2)Cc2cc(Cl)cc(-c3ccnc4[nH]ccc34)c2O1 (stereo not drawn) [(2-allyl-5-chloro-7-(1H-pyrrolo[2,3-b]pyridin-4-yl)-2,3-dihydrobenzofuran-2-yl)(piperazin-1-yl)methanone] | 10 to 30 |
| O=C(C1Cc2cc(Cl)cc(-c3ccnc4[nH]ccc34)c2O1)N1CCCC(C2CNC2)C1 (stereo not drawn) [(3-(azetidin-3-yl)piperidin-1-yl)(5-chloro-7-(1H-pyrrolo[2,3-b]pyridin-4-yl)-2,3-dihydrobenzofuran-2-yl)methanone] | 10 to 30 |
| O=C(C1Cc2cc(Cl)cc(-c3ccnc4[nH]ccc34)c2O1)N1CCC(c2cnc[nH]2)CC1 (stereo not drawn) [(4-(1H-imidazol-5-yl)piperidin-1-yl)(5-chloro-7-(1H-pyrrolo[2,3-b]pyridin-4-yl)-2,3-dihydrobenzofuran-2-yl)methanone] | 1 to 10 |
| CCC(O)c1cc2nccc(-c3cc(Cl)cc4c3O[C@@H](C(=O)N3CCC(c5cnc[nH]5)CC3)C4)c2s1 (stereo partly drawn) [(4-(1H-imidazol-5-yl)piperidin-1-yl)((2R)-5-chloro-7-(2-(1-hydroxypropyl)thieno[3,2-b]pyridin-7-yl)-2,3-dihydrobenzofuran-2-yl)methanone] | 1 to 10 |

From US20210317134A1, “UBIQUITIN-SPECIFIC-PROCESSING PROTEASE 7 (USP7) MODULATORS AND USES THEREOF” (RAPT THERAPEUTICS, INC., priority 2019, published 2021)
